# Source: paper PMC4287680, “Targeting GLP-1 receptors for repeated magnetic resonance imaging differentiates graded losses of pancreatic beta cells in mice” (Diabetologia, 2014)
# Tested on: pancreas of RIP-DTr mice
# Experiment: Total pancreas insulin content (acid-ethanol extraction, ELISA) after DT
# Type: in vivo
# Description: Rat insulin promoter-diphtheria toxin receptor (RIP-DTr) mice were generated as reported. Briefly, the transgene containing an insulin promoter and the diphtheria toxin (DT) receptor coding sequence (RIP-DTr) was targeted to the Hprt locus of the X chromosome. Thus, in this model, DT administration leads to a parallel loss of insulin content and beta cells, which is partially due to the random X inactivation (on average 50%) in hemizygous female mice and nearly complete ablation in male mice.
# To evaluate the total insulin content of the pancreas, whole glands were carefully dissected and extracted in acid-ethanol for 24 h, as reported. Pancreas insulin content was evaluated using a rodent insulin ELISA kit (Mercodia, Uppsala, Sweden) according to the manufacturer’s instructions.
# Three-to-four-months-old male and female mice of the RIP-DTr strain [33, 36] were tested before and after DT administration. Mice were initially imaged before the injection of a probe to obtain a baseline T2 value (ESM Fig. 2). […] One week after this first imaging session, the same mice were given three intraperitoneal injections of 125 ng DT (injections administered on days 7, 9 and 11; ESM Fig. 2) and were monitored for non-fasting blood glucose by measuring tail-vein blood samples with a glucose meter. […]
substance,measurement,setting,value
Diphtheria toxin [DT],"Pancreas insulin content after DT, female mice (average)","female RIP-DTr mice, up to 3 months after DT administration (3 × 125 ng i.p.)",63 % of the control levels
same,"Pancreas insulin content after DT, male mice",male RIP-DTr mice after DT administration (3 × 125 ng i.p.),0.4 % of control levels
